Laboratory results published in patent publication US5444042A, “Method of treatment of neurodegeneration with calpain inhibitors” (Cortex Pharmaceuticals, priority 1994, dated 1995).
Where a SMILES comes first, the peptide text is derived from it. The star is where a group is joined. Cbz = O=C(OCc1ccccc1)*; CH2Cl = ClC*

Legend:
[1] = system: Calpain in crude brain extracts; experiment: Ca2+-stimulated spectrin proteolysis in crude brain extracts (Example 2); assay type: biochemical; conditions: 100 μM
Summary of the method: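 Brain tissue was homogenized in 10 mM Tris pH 7.4, 0.32 M sucrose, 1 mM EGTA and 1 mM DTT, and nuclei and debris were removed. Calpain activity was scored as Ca^2+-stimulated proteolysis of endogenous spectrin.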

[2] = system: Calpain within platelets; experiment: Platelet membrane permeation assay, spectrin proteolysis (Examples 4A, 4B); assay type: cell-based, rat; conditions: 100 μM, A23187 1 μM
Summary of the method: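 Rat (Sprague-Dawley) platelets at 10^7 cells/ml in HEPES buffer pH 7.4, preincubated 5 min with inhibitor, then 5 min with 1 μM A23187 to activate calpain. Spectrin proteolysis assessed by SDS-PAGE and anti-spectrin immunoblot, quantified by densitometry.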

[3] = target: T1, Calpain II (Homo sapiens, UniProt P17655); experiment: Calpain II 14C-methylated casein proteolysis (Table 1A); assay type: biochemical
T1 construct: from tissue; purified by a cited method
T1 sequence (P17655 1-700): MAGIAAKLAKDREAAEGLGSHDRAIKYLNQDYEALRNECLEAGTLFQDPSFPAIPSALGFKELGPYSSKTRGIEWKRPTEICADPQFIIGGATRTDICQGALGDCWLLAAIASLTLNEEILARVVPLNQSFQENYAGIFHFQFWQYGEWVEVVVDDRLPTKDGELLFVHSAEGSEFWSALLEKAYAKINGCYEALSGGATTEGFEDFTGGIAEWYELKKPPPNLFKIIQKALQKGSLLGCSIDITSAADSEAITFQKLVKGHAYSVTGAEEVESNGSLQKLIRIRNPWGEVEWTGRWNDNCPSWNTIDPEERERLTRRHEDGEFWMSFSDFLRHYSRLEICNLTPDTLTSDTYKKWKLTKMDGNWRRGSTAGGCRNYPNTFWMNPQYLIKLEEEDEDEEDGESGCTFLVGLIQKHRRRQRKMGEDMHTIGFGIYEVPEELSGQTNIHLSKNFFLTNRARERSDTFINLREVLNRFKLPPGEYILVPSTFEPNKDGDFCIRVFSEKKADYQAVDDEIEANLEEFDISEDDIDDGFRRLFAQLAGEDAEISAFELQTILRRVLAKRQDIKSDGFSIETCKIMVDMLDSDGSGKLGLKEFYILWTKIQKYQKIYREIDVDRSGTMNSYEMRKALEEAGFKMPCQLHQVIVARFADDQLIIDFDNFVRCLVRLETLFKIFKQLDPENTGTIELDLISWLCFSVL
T1 sequence (P04632 1-268 partner): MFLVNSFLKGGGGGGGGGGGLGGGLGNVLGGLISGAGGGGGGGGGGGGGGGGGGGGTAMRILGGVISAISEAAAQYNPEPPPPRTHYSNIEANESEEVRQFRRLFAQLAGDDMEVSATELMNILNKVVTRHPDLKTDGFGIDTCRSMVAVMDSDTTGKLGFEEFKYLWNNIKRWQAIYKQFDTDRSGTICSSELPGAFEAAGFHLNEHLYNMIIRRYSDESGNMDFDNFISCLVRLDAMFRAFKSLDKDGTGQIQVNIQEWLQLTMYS
Description: (§1) The isocoumarins are irreversible inhibitors of Calpain. We obtained IC50 values for a variety of these Calpain Inhibitors as a kinetic analysis of these compounds.
(§2) Calpains I and II were purified by the method of (Yoshimura, et al. 1983). (Kitahara 1984) provides an alternative purification scheme. Calpain II may alternatively be purchased from Sigma Chemical Co. as "Calcium Activated Neutral Protease." In this assay, purified Calpain was incubated with ^14 C-methylated casein in the presence of various Heterocyclic Compounds and the amount of acid-soluble radioactivity released by the action of Calpain was measured.

[4] = system: N18-RE-105 cells; experiment: Glutamate-induced cell death, MTT conversion (Example 5); assay type: cell-based; conditions: 5 mM glutamate, inhibitor 3 μg/ml, 19 hours
Description: Stock cultures of N18-RE-105 cells were maintained in Dulbecco's modified Eagle's medium (DMEM) containing 10% fetal bovine serum (FBS) and supplemented with hypoxanthine, aminopterin and thymidine (HAT). Subconfluent cultures were split and plated into 96-well plates. Twenty-four hours after plating the cells were exposed to fresh media containing glutamate and various concentrations of Calpain inhibitors. Control cells were not treated with glutamate. Conversion of MTT was measured 19 hours later as described. Nineteen hours after the onset of exposure, cell viability was quantitated by measuring the extent to which the cells convert 3(4,5-dimethylthiazol-2-yl)-2-5-diphenyltetrazolium bromide (MTT) to a blue formazan product, which occurs in the mitochondria of living but not dead cells (Pauwels et al., 1988). A higher absorbance is indicative of greater cell viability.

[5] = system: Calpain II; experiment: Kapp/[I] progress curve method, Calpain II (Table 1C); assay type: biochemical; design: unit not given here; conditions: Rabbit Calpain II, Suc-leu-tyr-amidomethylcoumarin
Description: The Halo-Ketone Peptides, like the substituted isocoumarins, are irreversible inhibitors of Calpain. We determined the Kapp /[I] values for various members of this class of compounds against Calpains I and II. For comparison, we also determined these values against the additional thiol proteases Papain and Cathepsin B for at least one Halo-Ketone Peptide.
We assayed Calpain I and II using Suc-leu-tyr-amidomethylcoumarin. Papain was assayed using benzoyl-arg-4-nitroanilide, and Cathepsin B (bovine) was assayed using CBZ-lys-4-nitrophenyl ester. We followed the progress curve method of Tian and Tsou, Biochemistry, 21:1028-1032 (1982), the disclosure of which is hereby incorporated by reference, to derive kinetic data. Briefly, this method makes use of the equation: [formula] where [P.infin. ] represents the concentration of product formed at a time approaching infinity, A is the Kapp in the presence of substrate (S), K is the Michaelis constant and [Y] is the concentration of the inhibitor. Since [S] and [Y] are known and V and K can be determined, Kapp can be readily determined.

[6] = target: T2, Calpain I (Homo sapiens, UniProt P07384); experiment: Calpain I 14C-methylated casein proteolysis (Table 1A); assay type: biochemical
T2 sequence (P07384 1-714): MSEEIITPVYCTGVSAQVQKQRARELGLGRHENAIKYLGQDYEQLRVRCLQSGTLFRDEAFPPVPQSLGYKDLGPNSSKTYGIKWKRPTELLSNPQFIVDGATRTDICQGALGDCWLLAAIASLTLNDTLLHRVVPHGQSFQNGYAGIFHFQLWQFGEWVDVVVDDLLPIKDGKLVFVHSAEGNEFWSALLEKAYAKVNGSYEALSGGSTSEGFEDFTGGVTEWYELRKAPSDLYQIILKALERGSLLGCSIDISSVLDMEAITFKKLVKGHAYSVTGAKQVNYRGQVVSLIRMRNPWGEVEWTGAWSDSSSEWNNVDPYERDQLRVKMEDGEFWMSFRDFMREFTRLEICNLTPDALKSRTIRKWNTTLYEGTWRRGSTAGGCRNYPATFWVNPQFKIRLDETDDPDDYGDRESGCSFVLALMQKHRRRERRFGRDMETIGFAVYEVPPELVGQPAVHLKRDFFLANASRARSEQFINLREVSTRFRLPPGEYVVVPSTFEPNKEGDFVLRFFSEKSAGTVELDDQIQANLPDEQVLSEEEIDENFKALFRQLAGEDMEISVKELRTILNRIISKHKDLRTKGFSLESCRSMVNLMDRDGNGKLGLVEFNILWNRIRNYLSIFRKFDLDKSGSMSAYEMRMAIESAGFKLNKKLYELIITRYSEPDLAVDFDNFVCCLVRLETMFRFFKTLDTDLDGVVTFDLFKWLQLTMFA
T2 sequence (P04632 1-268 partner): T1 sequence (P04632 1-268 partner)
Description: as §1, §2

[7] = target: T3, Calpain I from human erythrocytes (Homo sapiens, UniProt P07384); experiment: Calpain I inhibition, Suc-Leu-Tyr-AMC (Table PKC1); assay type: biochemical; conditions: 20 mM Hepes, 10 mM CaCl2, 10 mM β-mercaptoethanol, pH 7.2; read-out: Ki CI (Calpain I)
T3 construct: Calpain I from human erythrocytes and calpain II from rabbit were assayed using Suc-Leu-Tyr-AMC; from tissue; host or cells: human erythrocytes
T3 sequence (P07384 1-714): T2 sequence (P07384 1-714)
T3 sequence (P04632 1-268 partner): T1 sequence (P04632 1-268 partner)
Description: (§3) Our discovery of Peptide Keto-Compounds effective as Calpain Inhibitors was made through assay of the Peptide Keto-Compounds as reversible inhibitors. Various concentrations of inhibitors in dimethylsulfoxide (DMSO) were added to the assay mixture, which contained buffer and substrate. The reaction was started by the addition of the enzyme and the hydrolysis rates were followed spectrophotometrically or fluorimetrically. 88 mM KH2 PO4, 12 mM Na2 HPO4, 1.33 mM EDTA, 2.7 mM cysteine, pH 6.0 was used as a buffer for cathepsin B; and 20 mM Hepes, 10 mM CaCl2, 10 mM β-mercaptoethanol, pH 7.2 buffer was utilized for calpain I and calpain II.
(§4) All peptide thioester hydrolysis rates were measured with assay mixtures containing 4,4'-dithiodipyridine [e324=19800 M-1 cm-1; Grasetti & Murray, Arch. Biochem. Biophys. 119, pp 41-49 (1967)]. Papain was assayed with Bz-Arg-AMC or Bz-Arg-NA [Kanaoka et al., Chem. Pharm. Bull. 25, 3126-3128 (1977)], and the AMC (7-amino-4-methylcoumarin) release was followed fluorimetrically (excitation at 380 nm, and emission at 460 nm). Cathepsin B was assayed with Z-Arg-Arg-AFC [Barrett and Kirschke, Methods Enzymol. 80, 535-561 (1981)], and the AFC (7-amino-4-trifluoromethylcoumarin) release was followed fluorimetrically (excitation at 400 nm, and emission at 505 nm). Calpain I from human erythrocytes and calpain II from rabbit were assayed using Suc-Leu-Tyr-AMC [Sasaki et al., J. Biol. Chem. 259, 12489-12494 (1984), hereby incorporated by reference], and the AMC (7-amino-4-methylcoumarin) release was followed fluorimetrically (excitation at 380 nm, and emission at 460 nm). Enzymatic hydrolysis rates were measured at various substrate and inhibitor concentrations, and Ki values were determined by Dixon plot.

[8] = target: Cathepsin B (Bos taurus, UniProt P07688); experiment: Cathepsin B inhibition, Z-Arg-Arg-AFC (Table PKC1); assay type: biochemical; conditions: pH 6.0 phosphate buffer, substrate Z-Arg-Arg-AFC; read-out: Ki CB (Cathepsin B)
Description: as §3, with “Various” for “Our discovery of Peptide Keto-Compounds effective as Calpain Inhibitors was made through assay of the Peptide Keto-Compounds as reversible inhibitors. Various”
as §4

[9] = target: T4, Papain (Carica papaya, UniProt P00784); experiment: Papain inhibition, Ki by Dixon plot (Table PKC1); assay type: biochemical; conditions: 0.05M Tris-HCl pH 7.5, 2 mM EDTA, 5 mM cysteine, 1% DMSO, 25° C., substrate Nα-Benzoyl-Arg-AMC; read-out: Ki P (Papain)
T4 sequence (P00784 134-345): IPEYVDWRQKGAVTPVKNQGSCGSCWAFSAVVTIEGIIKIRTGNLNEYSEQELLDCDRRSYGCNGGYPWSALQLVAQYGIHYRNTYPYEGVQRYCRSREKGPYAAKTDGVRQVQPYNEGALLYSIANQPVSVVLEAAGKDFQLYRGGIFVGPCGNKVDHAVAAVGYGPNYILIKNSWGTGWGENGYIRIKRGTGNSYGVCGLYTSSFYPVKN
Description: as §3, with “Various” for “Our discovery of Peptide Keto-Compounds effective as Calpain Inhibitors was made through assay of the Peptide Keto-Compounds as reversible inhibitors. Various”
as §4
The inhibition constants for papain shown in Table PKC1 were measured in 0.05M Tris-HCl, pH 7.5 buffer, containing 2 mM EDTA, 5 mM cysteine (freshly prepared), 1% DMSO, at 25° C., using N^α -Benzoyl-Arg-AMC as a substrate, except that those values of inhibition constants for papain marked with an "e" in Table PKC1 were measured in 50 mM Tris-HCl, pH 7.5 buffer, containing 20 mM EDTA, 5 mM cysteine, 9% DMSO, at 25° C., using N^α -Benzoyl-Arg-NA as a substrate.

Structure (SMILES)	inhibition of spectrin proteolysis in crude brain extracts [1]	inhibition of Calpain within platelets [2]	Kapp/[I] CII [5]	also measured
N=C(N)SCCCOc1oc(=O)c2cc(NC(=O)[C@@H](N)Cc3ccccc3)ccc2c1Cl [L-Phe-NH-CiTPrOIC, 7-(L-phenylalanylamino)-4-chloro-3-(3-isothiureidopropoxy)isocoumarin]	significant inhibition	significant inhibition	–	IC50 [3]: 30 µM
Cc1ccc(S(=O)(=O)N[C@@H](Cc2ccccc2)C(=O)CCl)cc1 [TPCK, Tosyl-PheCH2 Cl, reference compound]	–	–	–	blue formazan product relative to control without glutamate [4]: ≥ 100%
CC(C)C(NC(=O)OCc1ccccc1)C(=O)NC(Cc1ccccc1)C(=O)CCl (stereo not drawn) [Z-Val-Phe-CH2 Cl] (Cbz-Val-Phe-CH2Cl; configuration not given here)	–	–	27200	–
CC(=O)NC(C)C(=O)NC(C)C(=O)NC(C)C(=O)NC(C)C(=O)CCl (stereo not drawn) [Ac-Ala-Ala-Ala-Ala-CH2 Cl] (Ac-AAAA-CH2Cl; configuration not given here)	–	–	1300	–
CC(NC(=O)OCc1ccccc1)C(=O)NC(Cc1ccccc1)C(=O)CCl (stereo not drawn) [Z-Ala-Phe-CH2 Cl]	–	–	2400	–
N=C(N)SCCOc1oc(=O)c2cc(NC(=O)NCc3ccccc3)ccc2c1Cl [PhCH2 NHCONH-CiTEtOIC, 7-(benzylcarbamoylamino)-4-chloro-3-(2-isothiureidoethoxy)isocoumarin]	significant inhibition	significant inhibition	–	IC50 [6]: 90 µM
N=C(N)SCCOc1oc(=O)c2cc(NC(=O)[C@H](N)Cc3ccccc3)ccc2c1Cl [D-Phe-NH-CiTEtOIC, 7-(D-phenylalanylamino)-4-chloro-3-(2-isothiureidoethoxy)isocoumarin]	significant inhibition	significant inhibition	–	IC50 [6]: 200 µM
CC(C)CC(NC(=O)CNC(=O)OCc1ccccc1)C(=O)NC(C)C(=O)CCl (stereo not drawn) [Z-Gly-Leu-Ala-CH2 Cl] (Cbz-Gly-Leu-Ala-CH2Cl; configuration not given here)	significant inhibition	–	210000	–
CCOC(=O)C(=O)C(C)NC(=O)C(C)NC(=O)C(C)NC(=O)OCc1ccccc1 (racemic) [Z-Ala-Ala-DL-Ala-COOEt, Z-Ala-Ala-DL-Ala-CO2 Et]	–	–	–	Ki [7]: 200 µM; Ki [8]: 2.2 µM; Ki [9]: 1.5 µM
